Experimental data published in US20120015907A1, “Furopyridine compounds and uses thereof” (NOVARTIS AG, priority 2010, published 2012).
pIC50: −log10 of the molar value. Read-outs that look alike come from different tables or passages of the source.

Biological target: T1, HCV polymerase (Hepatitis C virus genotype 1b, UniProt Q9WMX2)
T1 construct: (His)6 (C)
Assay: biochemical
Conditions: polymerase assay of Biological Example 1; for pIC50: read-out: NS5B polymerase IC50
From the text: A number of assays have been published to assess these activities. A general method that assesses the gross increase of HCV virus in culture was disclosed in U.S. Pat. No. 5,738,985 to Miles et al. In vitro assays have been reported in Ferrari et al. Jnl. of Vir., 73:1649-1654, 1999; Ishii et al., Hepatology, 29:1227-1235, 1999; Lohmann et al., Jnl of Bio. Chem., 274:10807-10815, 1999; and Yamashita et al., Jnl. of Bio. Chem., 273:15479-15486, 1998.
WO 97/12033, filed on Sep. 27, 1996, by Emory University, listing C. Hagedorn and A. Reinoldus as inventors, which claims priority to U.S. Provisional Patent Application Ser. No. 60/004,383, filed on September 1995, described an HCV polymerase assay that can be used to evaluate the activity of the of the compounds described herein. Another HCV polymerase assay has been reported by Bartholomeusz, et al., Hepatitis C Virus (HCV) RNA polymerase assay using cloned HCV non-structural proteins; Antiviral Therapy 1996:1(Supp 4) 18-24.

## CNC(=O)c1c(-c2ccc(C)cc2)oc2nc(N(CCCCO)S(C)(=O)=O)c(I)cc12 [Example 23.9996, 6-(N-(4-hydroxybutyl)methylsulfonamido)-5-iodo-N-methyl-2-p-tolylfuro[2,3-b]pyridine-3-carboxamide]
  pIC50: 7.72

## CNC(=O)c1c(-c2ccc(F)cc2)oc2nc(N(C)S(C)(=O)=O)c(CCCCC(=O)N3CCC[C@H]3C(N)=O)cc12 [Example 4.8, (S)-5-(5-(2-carbamoylpyrrolidin-1-yl)-5-oxopentyl)-2-(4-fluorophenyl)-N-methyl-6-(N-methylmethylsulfonamido)furo[2,3-b]pyridine-3-carboxamide]
  pIC50: 7.29

## CNC(=O)c1c(-c2ccc(F)cc2)oc2nc(N(C)S(C)(=O)=O)c(CCCCCNC(C)=O)cc12 [Example 14.3, 5-(5-Acetylamino-pentyl)-2-(4-fluoro-phenyl)-6-(methanesulfonyl-methyl-amino)-furo[2,3-b]pyridine-3-carboxylic acid methylamide]
  pIC50: 6.30

## CCc1cc2c(C(=O)NC)c(-c3ccc(F)cc3)oc2nc1N(CCCN(C)S(C)(=O)=O)S(C)(=O)=O [Example 23.3, 5-ethyl-2-(4-fluorophenyl)-N-methyl-6-(N-(3-(N-methylmethylsulfonamido)propyl)methylsulfonamido) furo[2,3-b]pyridine-3-carboxamide]
  pIC50: 7.24

## CNC(=O)c1c(-c2ccc(F)cc2)oc2nc(N(C)S(C)(=O)=O)c(CCCC(C)O)cc12 (stereo not drawn) [Example 4.93, 2-(4-fluorophenyl)-5-(4-hydroxypentyl)-N-methyl-6-(N-methylmethylsulfonamido)furo[2,3-b]pyridine-3-carboxamide]
  pIC50: 6.67

## CNC(=O)c1c(-c2ccc(F)cc2)oc2nc(N(CCCCC(=O)OC)S(C)(=O)=O)c(I)cc12 [Example 18, 5-{[2-(4-Fluoro-phenyl)-5-iodo-3-methylcarbamoyl-furo[2,3-b]pyridin-6-yl]-methanesulfonyl-amino}-pentanoic acid methyl ester]
  pIC50: 6.94

## CCc1ccc(-c2oc3nc(N(CCCC(C)(C)C(=O)O)S(C)(=O)=O)c(C4CC4)cc3c2C(=O)NC)cc1 [Example 29, 5-{[5-Cyclopropyl-2-(4-ethyl-phenyl)-3-methylcarbamoyl-furo[2,3-b]pyridin-6-yl]-methanesulfonyl-amino}-2,2-dimethyl-pentanoic acid]
  pIC50: 9.00

## CNC(=O)c1c(-c2ccc(C)cc2)oc2nc(N(CCCCCCCCC(=O)O)S(C)(=O)=O)c(C3CC3)cc12 [Example 29.992, 9-(N-(5-cyclopropyl-3-(methylcarbamoyl)-2-p-tolylfuro[2,3-b]pyridin-6-yl)methylsulfonamido) nonanoic acid]
  pIC50: 8.15

## CNC(=O)c1c(-c2ccc(C(F)(F)F)cc2)oc2nc(N(C)S(C)(=O)=O)c(I)cc12 [Example 2.91, 5-iodo-N-methyl-6-(N-methylmethylsulfonamide)-2-(4-(trifluoromethyl)phenyl)furo[2,3-b]pyridine-3-carboxamide]
  pIC50: 6.10

## CNC(=O)c1c(-c2ccc(F)cc2)oc2nc3c(cc12)C(C)(O)CCCN3S(C)(=O)=O (stereo not drawn) [Example 32, 2-(4-Fluoro-phenyl)-5-hydroxy-9-methanesulfonyl-5-methyl-6,7,8,9-tetrahydro-5H-1-oxa-9,10-diaza-cyclohepta[f]indene-3-carboxylic acid methylamide]
  pIC50: 6.19

## CNC(=O)c1c(-c2ccc(C)cc2)oc2nc(N(CCCC3(C(=O)O)CC3)S(C)(=O)=O)c(C3CC3)cc12 [Example 29.8, 1-(3-(N-(5-cyclopropyl-3-(methylcarbamoyl)-2-p-tolylfuro[2,3-b]pyridin-6-yl)mcthylsulfonamido)propyl) cyclopropanecarboxylic acid]
  pIC50: 8.70

## CCc1cc2c(C(=O)NC)c(-c3ccc(F)cc3)oc2nc1N(CCCS(=O)(=O)C(F)(F)F)S(C)(=O)=O [Example 23.96, 5-ethyl-2-(4-fluorophenyl)-N-methyl-6-(N-(3-(trifluoromethylsulfonyl)propyl)methylsulfonamido) furo[2,3-b]pyridine-3-carboxamide]
  pIC50: 6.72

## CNC(=O)c1c(-c2ccc(C)cc2)oc2nc(N(CCOCCC(CCOC)C(=O)O)S(C)(=O)=O)c(C3CC3)cc12 (stereo not drawn) [Example 23.999999, 4-{2-[(5-Cyclopropyl-3-methylcarbamoyl-2-p-tolyl-furo[2,3-b]pyridin-6-yl)-methanesulfonyl-amino]-ethoxy}-2-(2-methoxy-ethyl)-butyric acid]
  pIC50: 7.70

## CCc1cc2c(C(=O)NC)c(-c3ccc(F)cc3)oc2nc1N(CCCCC(=O)O)S(C)(=O)=O [Example 21.2, 5-(N-(5-ethyl-2-(4-fluorophenyl)-3-(methylcarbamoyl)furo[2,3-b]pyridin-6-yl)methylsulfonamido)pentanoic acid]
  pIC50: 7.92

## CCc1ccc(-c2oc3nc(N(CCCCC4(C(=O)O)CCOCC4)S(C)(=O)=O)c(C4CC4)cc3c2C(=O)NC)cc1 [Example 29.94, 4-(4-(N-(5-cyclopropyl-2-(4-ethylphenyl)-3-(methylcarbamoyl)furo[2,3-b]pyridin-6-yl)methylsulfonamido)butyl) tetrahydro-2H-pyran-4-carboxylic acid]
  pIC50: 8.52

## CNC(=O)c1c(-c2ccc(C)cc2)oc2nc(N(CCCC(O)C(C)(C)C(=O)O)S(C)(=O)=O)c(C3CC3)cc12 (stereo not drawn) [Example 50, 6-(N-(5-cyclopropyl-3-(methylcarbamoyl)-2-p-tolylfuro[2,3-b]pyridin-6-yl)methylsulfonamido)-3-hydroxy-2,2-dimethylhexanoic acid]
  pIC50: 8.52

## CNC(=O)c1c(-c2ccc(C)cc2)oc2nc(N(CCC[C@@H](C)C(=O)O)S(C)(=O)=O)c(C3CC3)cc12 [Example 47.3, (R)-5-(N-(5-cyclopropyl-3-(methylcarbamoyl)-2-p-tolylfuro[2,3-b]pyridin-6-yl)methylsulfonamido)-2-methylpentanoic acid]
  pIC50: 8.52

## C=Cc1cc2c(C(=O)NC)c(-c3ccc(F)cc3)oc2nc1N(CCCCC(=O)O)S(C)(=O)=O [Example 24.1, 5-(N-(2-(4-fluorophenyl)-3-(methylcarbamoyl)-5-vinylfuro[2,3-b]pyridin-6-yl)methylsulfonamido) pentanoic acid]
  pIC50: 7.11

## CCOP(C)(=O)CCCCCN(c1nc2oc(-c3ccc(C)cc3)c(C(=O)NC)c2cc1I)S(C)(=O)=O (stereo not drawn) [Example 23.9994, ethyl 5-(N-(5-iodo-3-(methylcarbamoyl)-2-p-tolylfuro[2,3-b]pyridin-6-yl)methylsulfonamido)pentyl (methyl)phosphinate]
NS5B polymerase IC50 μM
  IC50: 0.038 µM

## CNC(=O)c1c(-c2ccc(F)cc2)oc2nc(N(C)S(C)(=O)=O)c(CCCC(=O)N3CCC[C@H]3C(=O)OC)cc12 [Example 4.1, (S)-methyl 1-(4-(2-(4-fluorophenyl)-3-(methylcarbamoyl)-6-(N-methylmethylsulfonamido)furo[2,3-b]pyridin-5-yl)butanoyl)pyrrolidine-2-carboxylate]
  pIC50: 6.95

## CNC(=O)c1c(-c2ccc(C)cc2)oc2nc(N(CCCC3(C(=O)O)CCN(C)CC3)S(C)(=O)=O)c(C3CC3)cc12 [Example 29.99993, 4-(3-(N-(5-cyclopropyl-3-(methylcarbamoyl)-2-p-tolylfuro[2,3-b]pyridin-6-yl)methylsulfonamido)propyl)-1-methylpiperidine-4-carboxylic acid]
  pIC50: 8.52

## CCc1cc2c(C(=O)NC)c(-c3ccc(F)cc3)oc2nc1N(CCCC(C)(C)O)S(C)(=O)=O [Example 22.94, 5-ethyl-2-(4-fluorophenyl)-6-(N-(4-hydroxy-4-methylpentyl)methylsulfonamido)-N-methylfuro[2,3-b]pyridine-3-carboxamide]
  pIC50: 7.51

## CNC(=O)c1c(-c2ccc(F)cc2)oc2nc(N(C)S(C)(=O)=O)c(/C=C/C#N)cc12 [Example 13, (E)-5-(2-cyanovinyl)-2-(4-fluorophenyl)-N-methyl-6-(N-methylmethylsulfonamido)furo[2,3-b]pyridine-3-carboxamide]
  pIC50: 6.56

## C=CCCCN(c1nc2oc(-c3ccc(C)cc3)c(C(=O)NC)c2cc1C1CC1)S(C)(=O)=O [Example 29.99, 5-cyclopropyl-N-methyl-6-(N-(pent-4-enyl)methylsulfonamido)-2-p-tolylfuro[2,3-b]pyridine-3-carboxamide]
  pIC50: 7.85

## CNC(=O)c1c(-c2ccc(F)cc2)oc2nc(N(CCCCN)S(C)(=O)=O)c(I)cc12 [Example 20, 6-[(4-Amino-butyl)-methanesulfonyl-amino]-2-(4-fluoro-phenyl)-5-iodo-furo[2,3-b]pyridine-3-carboxylic acid methylamide]
  pIC50: 5.74

## CCc1ccc(-c2oc3nc(N(CCCC(C)(CCOC)C(=O)O)S(C)(=O)=O)c(C4CC4)cc3c2C(=O)NC)cc1 (stereo not drawn) [Example 42, 5-(N-(5-Cyclopropyl-2-(4-ethylphenyl)-3-(methylcarbamoyl)furo[2,3-b]pyridin-6-yl)methylsulfonamido)-2-(2-methoxyethyl)-2-methylpentanoic acid]
  pIC50: 8.70

## CCc1cc2c(C(=O)NC)c(-c3ccc(F)cc3)oc2nc1N(CCOCCN1C(=O)NC(C)(C)C1=O)S(C)(=O)=O [Example 22.4, 6-(N-(2-(2-(4,4-dimethyl-2,5-dioxoimidazolidin-1-yl)ethoxy)ethyl)methylsulfonamido)-5-ethyl-2-(4-fluorophenyl)-N-methylfuro[2,3-b]pyridine-3-carboxamide]
  pIC50: 7.48
